Consider 53 compounds from paper PMC12040169 (PLOS Biology, 2025).

As usually defined, the viability is a read-out of living cells in per cent, often relative to untreated cells.

Each structure is given as a SMILES string.

The nature of the series: in vitro. Conditions: human, hela cells, % viability.
`Cc1ccc(-c2ccc(CCC(=O)O)n2NC(=O)c2ccc([N+](=O)[O-])cc2)cc1` [CBK264776]: the viability at 28.5 h, 10 µM amounted to 109%. With `O=C(Nc1ccc(S(=O)(=O)Nc2ccc(Cl)c(C(F)(F)F)c2)cc1)c1ccc(CN2CCOCC2)cc1` [CBK264777] the figure was 104%. With `Cc1ccc(OCC(O)CNC(=O)c2ccccc2C(=O)O)cc1` (centres unmarked) [CBK264778], the viability at 28.5 h, 10 µM came to 116%. On to `Cc1ccc(C)c(NS(=O)(=O)c2ccc(NC(=O)c3ccc(CN4CCOCC4)cc3)cc2)c1` [CBK264780], for which the viability at 28.5 h, 10 µM is 104%. In the case of `O=C(O)CCc1ccc(-c2ccc(Cl)cc2)[nH]1` [CBK264781], the viability at 28.5 h, 10 µM worked out at 100%. With `CC(C)(C)c1ccc(OCCCC(=O)Nc2ccc(N3CCOCC3)cc2)cc1` [CBK264783], the viability at 28.5 h, 10 µM worked out at 88.8%. With `O=C1CC(c2ccc(F)cc2)CC(=O)C1=CNCCN1CCN(C(=S)Nc2ccccc2)CC1` (centres unmarked) [CBK264784], the viability at 28.5 h, 10 µM was 94.1%. For `O=C1CC(c2cccs2)CC(=O)C1=CNCCN1CCNCC1` (centres unmarked) [CBK264785], the viability at 28.5 h, 10 µM was found to be 105%. With `O=C(O)CN1C(=O)/C(=C/C2=Cc3ccccc3OC2)SC1=S` [CBK264787] the figure was 103%.

Take `O=C(Nc1ccc(S(=O)(=O)N2CCOCC2)cc1)c1cc(-c2ccccc2)nc2ccccc12` [CBK264790]: the viability at 28.5 h, 10 µM amounted to 103%. As to `CN1CCN(c2cc(N3CCN(S(=O)(=O)c4ccc5ccccc5c4)CC3)ccc2[N+](=O)[O-])CC1` [CBK264791], the viability at 28.5 h, 10 µM turned out to be 97.6%. As to `O=C(CCN1C(=O)/C(=C\C=C\c2ccccc2)SC1=S)Nc1cc(Cl)ccc1O` [CBK264792], the viability at 28.5 h, 10 µM came to 96.2%. On to `Cc1cccn2c(=O)c(/C=C3\SC(=S)N(CCCC(=O)O)C3=O)c(N3CCC(C)CC3)nc12` [CBK264793], for which the viability at 28.5 h, 10 µM is 107%. For `Cc1ccc(S(=O)(=O)N2CCN(c3ccc([N+](=O)[O-])c(N4CCN(C)CC4)c3)CC2)cc1` [CBK264795], the viability at 28.5 h, 10 µM came out at 118%.

Consider `O=C(O)CCc1ccc(-c2cccs2)n1-c1ccc(Cl)c(Cl)c1` [CBK264797], for which the viability at 28.5 h, 10 µM stood at 88.7%. Take `O=C(CCN1C(=O)/C(=C\C=C\c2ccccc2)SC1=S)Nc1cccc(C(=O)O)c1` [CBK264798]: the viability at 28.5 h, 10 µM was 109%. `O=[N+]([O-])c1ccccc1OCCCn1c2ccccc2c2ccccc21` [CBK264799]: the viability at 28.5 h, 10 µM was 92.1%. With `Cc1ccccc1Nc1nc(-c2ccc([N+](=O)[O-])cc2)nc2ccccc12` [CBK264803] the figure was 119%; with `Cc1cccc(C(=O)Oc2ccc(C(c3c(C)n[nH]c3O)c3c(C)n[nH]c3O)cc2)c1` [CBK264804], 102%; with `CC(Sc1ccc(Cl)cc1)C(=O)Nc1ccc(S(=O)(=O)Nc2ccc(Cl)cc2)cc1` (centres unmarked) [CBK264805], 97.9%.

Regarding `O=C(O)CCC(=O)CCC(=O)c1cccs1` [CBK264807], the viability at 28.5 h, 10 µM is 94.2%. Consider `O=C(O)CN1C(=O)/C(=C\c2ccc(Oc3ccc(C(F)(F)F)cc3[N+](=O)[O-])cc2)SC1=S` [CBK264809], for which the viability at 28.5 h, 10 µM was found to be 97.9%. With `COc1ccccc1N(CC(=O)Nc1c(C)cccc1C)S(=O)(=O)c1ccc(C)cc1` [CBK264810], the viability at 28.5 h, 10 µM worked out at 96.5%. In the case of `Cc1cc(C)n(CC(O)CN2C(=O)NC(C)(C)C2=O)n1` (centres unmarked) [CBK264811], the viability at 28.5 h, 10 µM turned out to be 107%. With `COc1ccc(C2=C(CC(=O)O)C(=O)CC2)cc1` [CBK264812] the figure was 89.2%; with `Cc1cccc(N(CC(=O)Nc2ccc3c(c2)oc2ccccc23)S(=O)(=O)c2ccccc2)c1` [CBK264813], 101%. With `COc1ccc(N(CC(=O)Nc2ccc3c(c2)oc2ccccc23)S(=O)(=O)c2ccccc2)cc1` [CBK264814] the figure was 104%. With `Cc1[nH]nc(O)c1C(c1ccc(OC(=O)c2ccc(F)cc2)cc1)c1c(O)n[nH]c1C` [CBK264816] the figure was 96.8%; with `CCC(=O)N1CCN(CCNC=C2C(=O)CC(c3cccs3)CC2=O)CC1` (centres unmarked) [CBK264817], 97%. As to `O=C(CCN1C(=O)/C(=C\C=C\c2ccccc2)SC1=S)Nc1ccc(C(=O)O)cc1` [CBK264818], the viability at 28.5 h, 10 µM stood at 104%. On to `O=C(COC(=O)c1ccc(Cl)c(Cl)c1)c1ccc(Oc2ccc([N+](=O)[O-])cc2)cc1` [CBK264821], for which the viability at 28.5 h, 10 µM was determined as 117%.

For `CCOC(=O)c1sc(Nc2nc(C)cc(OC)n2)nc1C` [CBK264822], the viability at 28.5 h, 10 µM came out at 108%.

On to `CC1(C)NC(=O)N(CC(O)CNC23CC4CC(CC(C4)C2)C3)C1=O` (centres unmarked) [CBK264823], for which the viability at 28.5 h, 10 µM turned out to be 95.5%. With `O=C(CCC(=O)c1ccc2c(c1)OCCO2)OCC(=O)c1ccc(Cl)c(Cl)c1` [CBK264825] the figure was 87.5%. As to `Cc1cc(Cl)c(OCCn2c3ccccc3c3ccccc32)c(Br)c1` [CBK264826], the viability at 28.5 h, 10 µM worked out at 92.2%. With `Nc1nnc(SCc2cccc3ccccc23)[nH]1` [CBK264830] the figure was 103%; with `N=C1NC(=O)/C(=C\c2cccc(C(=O)O)c2)S1` [CBK264832], 97.6%; with `CCc1cc2c(=O)c(-c3nc(C)cs3)c(CCCC(=O)O)oc2cc1O` [CBK264834], 101%. Take `Cc1ccc(/C=C/C(=O)O)cc1S(=O)(=O)N(CCO)CCO` [CBK264840]: the viability at 28.5 h, 10 µM is 99%.

Take `Cc1cc(/C=C2\NC(=O)NC2=O)c(C)n1-c1ccc(OCc2ccccc2F)cc1` [CBK264842]: the viability at 28.5 h, 10 µM turned out to be 88.3%. Regarding `Cn1c(SCC(=O)c2ccc([N+](=O)[O-])cc2)nnc1-c1ccc(N)cc1` [CBK264843], the viability at 28.5 h, 10 µM was 97.9%.

In the case of `CN1CCN(CC(=O)Nc2ccc(OCc3ccccc3)cc2)CC1` [CBK264844], the viability at 28.5 h, 10 µM is 103%. With `COc1ccc(NC2=CC(=O)CC(c3ccc(C)cc3)C2)c(OC)c1` (centres unmarked) [CBK264845], the viability at 28.5 h, 10 µM was 111%. Consider `COc1ccccc1OCCOc1c(Cl)cc(/C=C2\SC(=S)NC2=O)cc1Cl` [CBK264848], for which the viability at 28.5 h, 10 µM stood at 93.9%. For the compound `O=C1/C(=C/c2cn(Cc3cccc4ccccc34)c3ccccc23)C(O)=NN1c1ccccc1` [CBK264849], the viability at 28.5 h, 10 µM was 94.7%. Turning to `Oc1nc(CSc2nnc(-c3ccncc3)n2-c2ccccc2)nc2ccccc12` [CBK264851], the viability at 28.5 h, 10 µM came out at 97.5%.

On to `CNC(=S)NCCc1c[nH]c2ccccc12` [CBK264853], for which the viability at 28.5 h, 10 µM came to 108%. As to `COc1ccc2nc(Nc3nc(=O)cc(CSc4nc5ccccc5s4)[nH]3)nc(C)c2c1` [CBK264854], the viability at 28.5 h, 10 µM came to 110%. Regarding `COc1cccc(C2C(C(=O)c3ccc(Br)cc3)=C(O)C(=O)N2CCN2CCOCC2)c1OC` (centres unmarked) [CBK264855], the viability at 28.5 h, 10 µM came to 110%. Turning to `Cc1cc(=O)nc(N/C(N)=N/c2cccc([N+](=O)[O-])c2)[nH]1` [CBK264857], the viability at 28.5 h, 10 µM was 102%.

With `COc1ccc(C(=O)C2=C(O)C(=O)N(CCN3CCOCC3)C2c2ccc(O)c(OC)c2)c(C)c1` (centres unmarked) [CBK264858], the viability at 28.5 h, 10 µM was found to be 88%. As for `O=C(Oc1ccc(F)cc1C(=O)/C=C/c1ccccc1F)c1cccc([N+](=O)[O-])c1` [CBK264859], the viability at 28.5 h, 10 µM came to 86.9%. With `O=C(CC1Sc2ccc(Cl)cc2NC1=O)Nc1ccc([N+](=O)[O-])cc1` (centres unmarked) [CBK264860], the viability at 28.5 h, 10 µM was found to be 98%.
